The subject of the test is ROS17/2.8 cells. Briefly: Cell growth of ROS17/2.8 cells by the MTT method (formed formazan). The conditions noted are these: for activity at 0.02 µM: Rattus norvegicus, 2×10^−5M Test Compound solution diluted 1000 fold, read-out: Amount of formed formazan, Solution 8 (Test Compound alone); for activity at 0.02 µM / Amount of formed formazan, Solution 10 (a group of a drug combination): percentage to Solution 7 addition group, about 48 hours, average ± standard deviation of four wells; for Relative index of Solution 10 (a group of a drug combination) / Amount of formed formazan, Solution 10 (a group of a drug combination): Test Compound in combination with 1α,25-dihydroxyvitamin D3; for Relative index of Solution 10 (a group of a drug combination) / Relative index of Solution 8 (Test Compound alone): amount of formed formazan, Solution 7 = 1.00. The class given is cell-based, rat. Here is the method:
100 μL of a 10% FCS-αMEM comprising either DMSO and ethanol (referred to as Solution 7, hereinafter), a Test Compound solution and ethanol (referred to as Solution 8, hereinafter), a 1α,25-dihydroxyvitamin D3 solution and DMSO (referred to as Solution 9, hereinafter) or a Test Compound solution and the 1α,25-dihydroxyvitamin D3 solution (referred to as Solution 10, hereinafter) was dispensed. The ROS17/2.8 cells were inoculated to a medium at a density of 5×10^3 cells/100 μL/well. After culture of the cells for about 48 hours, the effect of Test Compound and 1α,25-dihydroxyvitamin D3 on the cell growth of the ROS17/2.8 cells was evaluated using the MTT method. Namely, after culture of the cells for about 44 hours, an MTT solution (3-[4,5-dimethylthiazol-2-yl]-2,5-diphenyltetrazolium bromide 2 mg/mL) was added in an amount of 25 μL/well, and the cells were further cultured for four hours. After the medium was removed, DMSO was added in an amount of 100 μL/well so as to dissolve the formed formazan. The amount of the formed formazan was determined by measuring the absorbance (at 560 nm) of the solution by a microplate reader.
The 10% FCS-αMEM comprising Solution 7 was prepared by diluting DMSO by 1000 fold with the 10% FCS-αMEM, and diluting ethanol by 10000 fold with the 10% FCS-αMEM. The 10% FCS-αMEM comprising Solution 8 was prepared by diluting a 2×10^−5M Test Compound solution by 1000 fold with the 10% FCS-αMEM, and diluting ethanol by 10000 fold with the 10% FCS-αMEM. The 10% FCS-αMEM comprising Solution 9 was prepared by diluting 2×10^−3M 1α,25-dihydroxyvitamin D3 solution by 10000 fold with the 10% FCS-αMEM, and diluting DMSO by 1000 fold with the 10% FCS-αMEM. The 10% FCS-αMEM comprising Solution 10 was prepared by diluting a 2×10^−5M Test Compound solution by 1000 fold with the 10% FCS-αMEM, and diluting 2×10^−3M 1α,25-dihydroxyvitamin D3 solution by 10000 fold with the 10% FCS-αMEM.
The amount of the formed formazan in each solution addition group was obtained in terms of a percentage to the average value of the amounts of formed formazan in four wells in a Solution 7 addition group. All the determined values were shown in terms of the average value±standard deviation of the four wells of each solution addition group.
(In general: Tetrazolium dyes change colour on reduction, which living cells bring about.)

As for `N/C(=N\O)c1ccc(OCCCCCOc2ccc(-c3nc(-c4cccnc4)sc3Cc3ccccc3)cc2)cc1` [Compound 2, N-hydroxy-4-{5-[4-(5-benzyl-2-(pyridin-3-yl)-1,3-thiazol-4-yl]phenoxy]pentoxy}benzamidine], the activity at 0.02 µM was determined as 103 ± 3.1%; the “Relative index of Solution 10 (a group of a drug combination)” value worked out at 1.17; the “Amount of formed formazan, Solution 10 (a group of a drug combination)” value (“Amount of formed formazan” for short) is on record as 117 ± 2.6 # %; the “Relative index of Solution 8 (Test Compound alone)” value came to 1.03.

As for `Cc1nc(-c2ccc(OCCCCCOc3ccc(/C(N)=N/O)cc3)cc2)c(CCCl)s1` [Compound 3, N-hydroxy-4-{5-[4-(5-(2-chloroethyl)-2-methyl-1,3-thiazol-4-yl)phenoxy]pentoxy}benzamidine], the activity at 0.02 µM worked out at 105 ± 3.1%; the “Relative index of Solution 10 (a group of a drug combination)” value was 1.12; the “Amount of formed formazan” value is listed as 112 ± 2.7 # %; the “Relative index of Solution 8 (Test Compound alone)” value is on record as 1.05.

Take `CCc1nc(-c2ccc(OCCCCCOc3ccc(/C(N)=N/O)cc3)cc2)c(CC2CCCC2)s1` [Compound 4, N-hydroxy-4-{5-[4-(5-cyclopentylmethyl-2-ethyl-1,3-thiazol-4-yl)phenoxy]pentoxy}benzamidine]: the activity at 0.02 µM is 105 ± 1.9%; the “Relative index of Solution 10 (a group of a drug combination)” value is reported as 1.12; the “Amount of formed formazan” value is 112 ± 1.6 # %; the “Relative index of Solution 8 (Test Compound alone)” value was 1.05.

For the compound `C=Cc1sc(C)nc1-c1ccc(OCCCCCOc2ccc(/C(N)=N/O)cc2)cc1` [Compound 5, N-hydroxy-4-{5-[4-(5-vinyl-2-methyl-1,3-thiazol-4-yl)phenoxy]pentoxy}benzamidine], the activity at 0.02 µM came out at 100 ± 3.7%; the “Relative index of Solution 10 (a group of a drug combination)” value amounted to 1.10; the “Amount of formed formazan” value was 110 ± 2.4 # %; the “Relative index of Solution 8 (Test Compound alone)” value was found to be 1.00.

Turning to `CNc1nc(-c2ccc(OCCCCCOc3ccc(/C(N)=N/O)cc3)cc2)c(CC2CCCC2)s1` [Compound 6, N-hydroxy-4-{5-[4-(5-cyclopentylmethyl-2-methylamino-1,3-thiazol-4-yl)phenoxy]pentoxy}benzamidine], the activity at 0.02 µM was 103 ± 2.5%; the “Relative index of Solution 10 (a group of a drug combination)” value is reported as 1.13; the “Amount of formed formazan” value is 113 ± 1.7 ## %; the “Relative index of Solution 8 (Test Compound alone)” value is given as 1.03.

For the compound `Cc1sc(N(C)CCO)nc1-c1ccc(OCCCCCOc2ccc(/C(N)=N/O)cc2)cc1` [Compound 7], the activity at 0.02 µM came to 109 ± 3.2%; the “Relative index of Solution 10 (a group of a drug combination)” value was 1.20; the “Amount of formed formazan” value is reported as 120 ± 2.3 ## %; the “Relative index of Solution 8 (Test Compound alone)” value was determined as 1.09.

As to `Cc1sc(N(C)Cc2ccccc2)nc1-c1ccc(OCCCCCOc2ccc(/C(N)=N/O)cc2)cc1` [Compound 8, N-hydroxy-4-{5-[4-(2-benzylmethylamino-5-methyl-1,3-thiazol-4-yl)phenoxy]pentoxy}benzamidine], the activity at 0.02 µM is 102 ± 4.9%; the “Relative index of Solution 10 (a group of a drug combination)” value was 1.15; the “Amount of formed formazan” value is recorded as 115 ± 2.3 ## %; the “Relative index of Solution 8 (Test Compound alone)” value is 1.02.

With `Cc1sc(N(C)Cc2cccnc2)nc1-c1ccc(OCCCCCOc2ccc(/C(N)=N/O)cc2)cc1` [Compound 9, N-hydroxy-4-{5-[4-(5-methyl-2-(methyl(pyridin-3-ylmethyl)amino)-1,3-thiazol-4-yl)phenoxy]pentoxy}benzamidine], the activity at 0.02 µM is 108 ± 2.3%; the “Relative index of Solution 10 (a group of a drug combination)” value is reported as 1.20; the “Amount of formed formazan” value is 120 ± 2.1 ## %; the “Relative index of Solution 8 (Test Compound alone)” value worked out at 1.08.

Values taken from patent US20110306580A1 (DONG WHA PHARMACEUTICAL CO ., LTD., priority 2009, published 2011).
